Assay results: EP1020526B1, “Process for producing L-Threonine by fermentation” (priority 1992, dated 1994)
pIC50: −log10 of the molar value. Converted amounts (≈) assume the structure as drawn.

Assays:
[1] = test system: GT3/pLYSC2; experiment: Growth of completely AK-deficient GT3 strain possessing lysC plasmid on M9 minimal agar with added lysine or AEC; further: key: +: growth; ±: some growth; -: no growth; type: cell-based, E. coli; settings: M9 agar medium, 37°C, 2 day culturing
Method: (§1) First, pLYSC1 and pLYSC2 were each incorporated into E. coli GT3 for its transformation to obtain two different transformants, and culturing was effected on an M9 minimal agar plate medium containing lysine or AEC. Also, the growth inhibition concentration of lysine or AEC was determined, and the conditions for selection of lysC* were investigated.

[2] = test system: GT3/pLYSC1; experiment: as above; type: cell-based, E. coli; settings: for growth: M9 agar medium, 37°C, 2 day culturing; for MIC: Escherichia coli, GT3, M9 minimal agar plate medium, read-out: concentration at which growth was completely inhibited; on Growth: key: +: growth; ±: some growth; -: no growth
Method: as §1

[3] = molecular target: T1, Escherichia coli aspartokinase III (AK III, lysC), wild type, SEQ ID NO: 1 (Escherichia coli, UniProt P08660); experiment: Aspartokinase (AK III) activity, lysine-dependent inhibition, crude enzyme, hydroxamate method of Stadtman et al.; type: biochemical
T1 construct: made in house; host or cells: E. coli GT3 (lacks AK I, II and III) carrying pLYSC1; cell-free extract, ammonium sulfate fraction
T1 sequence (P08660 2-449): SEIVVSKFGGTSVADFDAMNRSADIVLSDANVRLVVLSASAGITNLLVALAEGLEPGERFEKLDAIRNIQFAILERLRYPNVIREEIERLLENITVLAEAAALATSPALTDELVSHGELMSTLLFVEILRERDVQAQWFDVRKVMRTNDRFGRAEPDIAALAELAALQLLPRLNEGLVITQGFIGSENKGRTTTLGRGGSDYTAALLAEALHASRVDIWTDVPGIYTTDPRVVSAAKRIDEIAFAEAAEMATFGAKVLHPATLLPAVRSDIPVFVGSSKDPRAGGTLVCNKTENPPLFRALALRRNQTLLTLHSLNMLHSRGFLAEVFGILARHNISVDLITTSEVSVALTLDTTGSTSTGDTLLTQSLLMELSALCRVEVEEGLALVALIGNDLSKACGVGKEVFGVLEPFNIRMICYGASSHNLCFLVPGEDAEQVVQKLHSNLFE
Method: (§2) A completely AK-deficient GT3 strain was used as the host in respect of which the above mentioned 14 mutant pLYSC1's (named the pLYSC1* series) and wild pLYSC1 plasmids were respectively used for transformation, after which a cell-free extract was prepared from the transformants and the enzyme activity of AK III was measured. The method for the measurement of the enzyme activity was as follows.
(§3) • (1) Culturing of cells in 2 x TY medium, followed by cell collection at O.D. 660 nm = approx. 0.8. • (2) Washing with 0.02 M KH2PO4 (pH 6.75) - 0.03 M β mercaptoethanol at 0°C. • (3) Sonic crushing of cells (0°C, 100 W, 30 sec x 4 times). • (4) Centrifugation at 0°C, 33 krpm for 1 hour, followed by addition of ammonium sulfate to supernatant to 80% saturation. • (5) Centrifugation, followed by dissolution of pellets in buffer of (2), and preservation (-20°C).
(§4) The method of measuring the enzyme activity was according to the method of Stadtman, et al. (Stadtman, E.R., Cohen, G.N., Lebras, G. and Robichon-Szulmajster, H., J. Biol. Chem., 236, 2033, 1961).
(§5) Table 5: Reaction solution composition
(§6) The measurement method is outlined in Table 6 below. Table 6: Outline of measurement method
(§7) For the measurement of the enzyme activity of AK, lysine was added to the enzyme reaction solutions at various concentrations, and the levels of lysine-dependent inhibition were determined.
(§8) In Table 7, the inhibition release is presented as the activity (%) in the presence of 100 mM of lysine with respect to the activity of a lysine-free reaction solution, and the thermal stability is presented as the maintenance of activity (%) after treatment at 55°C for 1.5 hours with respect to the activity without heating. Table 7: Inhibition release by lysine and thermal stability

[4] = molecular target: T2, Escherichia coli aspartokinase III (AK III) mutant lysC* No. 172, 318 Met→Ile, 349 Val→Met (Escherichia coli, UniProt P08660, M318I/V349M); experiment: Aspartokinase (AK III) activity, lysine-dependent inhibition; type: biochemical
T2 construct: made in house; host or cells: E. coli GT3 carrying mutant pLYSC1*; cell-free extract
T2 sequence (P08660 2-449 M318I/V349M): as the sequence (P08660 2-449) above, with M317I, V348M counted along it
Method: as §2, §3, §4, §5, §6, §7, §8

[5] = molecular target: T3, Escherichia coli aspartokinase III (AK III) mutant lysC* No. 24, 352 Thr→Ile (Escherichia coli, UniProt P08660, T352I); experiment: as above; type: biochemical
T3 construct: made in house; host or cells: E. coli GT3 carrying mutant pLYSC1*; cell-free extract
T3 sequence (P08660 2-449 T352I): as the sequence (P08660 2-449) above, with T351I counted along it
Method: as §2, §3, §4, §5, §6, §7, §8

[6] = molecular target: T4, Escherichia coli aspartokinase III (AK III) mutant lysC* No. 80, 352 Thr→Ile (Escherichia coli, UniProt P08660, T352I); experiment: as above; type: biochemical
T4 construct: made in house; host or cells: E. coli GT3 carrying mutant pLYSC1*; cell-free extract
T4 sequence (P08660 2-449 T352I): as the sequence (P08660 2-449) above, with T351I counted along it
Method: as §2, §3, §4, §5, §6, §7, §8

[7] = molecular target: T5, Escherichia coli aspartokinase III (AK III) mutant lysC* No. 169, 352 Thr→Ile, 369 Ser→Phe (Escherichia coli, UniProt P08660, S369F/T352I); experiment: as above; type: biochemical
T5 construct: made in house; host or cells: E. coli GT3 carrying mutant pLYSC1*; cell-free extract
T5 sequence (P08660 2-449 T352I/S369F): as the sequence (P08660 2-449) above, with T351I, S368F counted along it
Method: as §2, §3, §4, §5, §6, §7, §8

[8] = molecular target: T6, Escherichia coli aspartokinase III (AK III) mutant lysC* No. 149, 34 Arg→Cys, 323 Gly→Asp (Escherichia coli, UniProt P08660, G323D/R34C); experiment: as above; type: biochemical; settings: activity in the presence of 100 mM of lysine with respect to lysine-free reaction solution
T6 construct: made in house; host or cells: E. coli GT3 carrying mutant pLYSC1*; cell-free extract
T6 sequence (P08660 2-449 R34C/G323D): as the sequence (P08660 2-449) above, with R33C, G322D counted along it
Method: as §2, §3, §4, §5, §6, §7, §8

[9] = molecular target: T7, Escherichia coli aspartokinase III (AK III) mutant lysC* No. 117, 345 Ser→Leu (Escherichia coli, UniProt P08660, S345L); experiment: as above; type: biochemical
T7 construct: made in house; host or cells: E. coli GT3 carrying mutant pLYSC1*; cell-free extract
T7 sequence (P08660 2-449 S345L): as the sequence (P08660 2-449) above, with S344L counted along it
Method: as §2, §3, §4, §5, §6, §7, §8

[10] = lysine, compared with wild type AK III

Row | SMILES | growth ([1]; 0.2 mM added) | growth ([1]; 0.4 mM added) | growth ([1]; 0.8 mM added) | growth ([1]; 1.5 mM added) | growth ([1]; 3 mM added) | growth ([1]; 6 mM added) | growth ([1]; 12 mM added) | growth ([1]; 25 mM added) | growth ([1]; 50 mM added) | growth ([2]; 0.2 mM added) | growth ([2]; 0.4 mM added) | growth ([2]; 0.8 mM added) | growth ([2]; 1.5 mM added) | growth ([2]; 3 mM added) | growth ([2]; 6 mM added) | growth ([2]; 12 mM added) | growth ([2]; 25 mM added) | growth ([2]; 50 mM added) | MIC [2] | other results
1 | NCCSC[C@H](N)C(=O)O [AEC, S-2-aminoethylcysteine, reference compound] | ± | ± | ± | ± | ± | - | - | - | - | - | - | - | - | - | - | - | - | - | ~200 µM (≈ 32.8 µg/mL) | 
2 | NCCCC[C@H](N)C(=O)O [lysine] | + | + | + | + | + | + | + | + | + | - | - | - | - | - | - | - | - | - | ~200 µM (≈ 29.2 µg/mL) | pIC50 [3]: ~3.35; inhibition at 5000 µM ([3]; 5 mM of lysine): ~100%; activity at 100000 µM ([3]; activity in the presence of 100 mM of lysine with respect to lysine-free reaction solution, read-out: Inhibition release (%)): 0%; growth ([1]; 100 mM added): ±; growth ([1]; 200 mM added): -; growth ([2]; 100 mM added): -; growth ([2]; 200 mM added): -; inhibition ([4]; 100 mM of lysine): practically no inhibition; 50% inhibition concentration (fold) [4, 10]: ≥ 200 fold; inhibition ([5]; 100 mM of lysine): practically no inhibition; 50% inhibition concentration (fold) [5, 10]: ≥ 200 fold; inhibition ([6]; 100 mM of lysine): practically no inhibition; 50% inhibition concentration (fold) [6, 10]: ≥ 200 fold; inhibition ([7]; 100 mM of lysine): practically no inhibition; 50% inhibition concentration (fold) [7, 10]: ≥ 200 fold; Inhibition release (%) [8]: 59%; inhibition ([9]; 100 mM of lysine): practically no inhibition; 50% inhibition concentration (fold) [9, 10]: ≥ 200 fold
